≈ marks a conversion by molar mass, not a printed value.
Assay: Water solubility of merocyanine (C)
Format: physicochemical
Conditions: at 20° C.
Excerpt: It is therefore necessary to be able to formulate UV-screening agents of merocyanine type in an aqueous medium. In particular, for cosmetic quality and performance benefits, it is advantageous that this aqueous medium be a single-phase medium.

Compound CCOCCOC(=O)/C(C#N)=C1\C=C(NCCCOC)CCC1 [Compound (C), 2-ethoxyethyl (2Z)-cyano{3-[(3-methoxypropyl)amino]cyclohex-2-en-1-ylidene}ethanoate] has a solubility of roughly 500 µg/mL (≈ 1550 µM).

From patent publication US20250049674A1, “COSMETIC OR DERMATOLOGICAL COMPOSITION COMPRISING AT LEAST A MEROCYANINE AND A HYDROTROPE” (L'OREAL, priority 2021, published 2025)
